Data set [1] relates to A10 smooth muscle cell line. Nature of the data set: DNA mass quantification (Hoechst 33258) cytotoxicity assay, direct contact, ISO 10993-5. The class given is cell-based. Conditions: A10 cells, relative to DMEM negative control, mean ± SD, n = 4. How it is done:
(§1) Cytotoxicity Assays: In vitro cytotoxicity of adhesive formulations was assessed by direct contact with cells, according to ISO 10993-5 [35], which describes test methods to evaluate in vitro cytotoxicity of medical devices and, therefore, determine the in vitro biological response of mammalian cells using appropriate parameters. DNA mass quantification and Water-soluble tetrazolium (WST-1) assays were used to evaluate the toxicity of the formulations to a cell line. Negative and positive controls consisted of growth media with untreated cells and 5% Dimethyl sulfoxide (DMSO), respectively.
Cell Culture and Sample Preparation: A10 smooth muscle cell line (ATCC, CRL-1476™) were cultured in Dulbecco's modified Eagle's medium (DMEM), supplemented with 100 U mL^−1 penicillin/100 μg of streptomycin and 10% fetal bovine serum in a humidified atmosphere at 37° C. with 5% C02. The medium was changed every other day, allowing the cells to grow and reach confluency. When the cells reached 80-90% confluence, they were passaged following treatment with 0.25% trypsin-EDTA solution. This procedure was repeated until the cells entered their standard cellular cycle. Samples of adhesives were pre-conditioned in an incubator with DMEM for 24 h. […]
DNA mass quantification: At each time-point, cells were lysed with ice-cold lysis buffer (0.05% Triton X-100, 50 mM EDTA in PBS) for 1 h and tested for DNA assay as previously described. […] Then, 10 μL of cell lysate was added to the dye and read against a calf thymus DNA standard in a fluorescence microplate reader (BioTek Cytation 3, Biotek, Winooski, Vt., USA), with the excitation wavelength set at 360 nm and the emission wavelength observed at 460 nm.
(§2) Statistical analysis: Data was analyzed using the software PASW Statistics 21.0 (SPSS Inc, Chicago, Ill., USA). Two-Way analysis of variance (ANOVA) and Tukey's multiple comparison post-hoc tests will be used to determine a statistical significance between the groups for the DNA mass quantification and WST-1 assays. […]

Data set [2] concerns A10 smooth muscle cell line. Kind of data set: WST-1 cell viability assay, direct contact, ISO 10993-5. Format: cell-based. The following applies: A10 cells, relative to DMEM negative control, mean ± SD, n = 4. How it is done: as §1
Cell Culture and Sample Preparation: A10 smooth muscle cell line (ATCC, CRL-1476™) were cultured in Dulbecco's modified Eagle's medium (DMEM), supplemented with 100 U mL^−1 penicillin/100 μg of streptomycin and 10% fetal bovine serum in a humidified atmosphere at 37° C. with 5% C02. The medium was changed every other day, allowing the cells to grow and reach confluency. When the cells reached 80-90% confluence, they were passaged following treatment with 0.25% trypsin-EDTA solution. This procedure was repeated until the cells entered their standard cellular cycle. Samples of adhesives were pre-conditioned in an incubator with DMEM for 24 h. Then, cells were seeded onto the samples, to which 200 μL of A10 suspension (approximately 25,000 cells/mL) was added. The seeded specimens were confined in the wells of a 96-well plate for 24 h, 72 h and 7 days.
WST-1 assay: For the WST assay, after removing media and rinsing with 1× with PBS, 200 μL of DMEM was added to each well. […] The absorbance was read using a multi-mode reader (BioTek Cytation 3, Biotek, Winooski, Vt., USA) at 450 nm, with a reference wavelength of 650 nm. […]
as §2

With `C[S+](C)[O-]` [5% DMSO, Dimethyl sulfoxide], the “Relative DNA mass (%)” value in data set [1] (24 h) was determined as 15.3 ± 5.3%; in data set [1] (72 h), 1.3 ± 1.9%; in data set [1] (7 d) it was 1.4 ± 1.6%. The “Relative Cell viability (%)” value is 18.4 ± 0.9% in data set [2] (WST-1, 24 h); 4.4 ± 1.1% in data set [2] (WST-1, 72 h); 1.0 ± 0.5% in data set [2] (WST-1, 7 d).

Source of the values: patent US20220395608A1, “WATER SOLUBLE BIOADHESIVES” (THE GOVERNING COUNCIL OF THE UNIVERSITY OF TORONTO, priority 2019, published 2022).
